Laboratory results taken from ChEMBL document CHEMBL1201862, “PubChem BioAssay data set” (2004).
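Exposure lasted 48 hours, with cells grown in 96-well plates and compounds tested at five concentrations. GI50 marks 50% less growth.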 Calls of active or inactive are those of the source. No stated cut-off is given here; in the data, active = GI50 up to about 1.1 µM and inactive = higher.

Assays:
Test in all cases: growth of human tumour cells (NCI), 48 h
OVCAR-4 = tested on: OVCAR-4
LOX IMVI = tested on: LOX IMVI
CAKI-1 = tested on: CAKI-1
786-0 = tested on: 786-0
UACC-62 = tested on: UACC-62
SN12C = tested on: SN12C
SF-295 = tested on: SF-295
HCT-15 = tested on: HCT-15
HT-29 = tested on: HT-29
HL-60 = tested on: HL-60
DLD-1 = tested on: DLD-1
NCI-H226 = tested on: NCI-H226
K562 = tested on: K562
SNB-75 = tested on: SNB-75
RXF 393 = tested on: RXF 393
MDA-N = tested on: MDA-N
MDA-MB-231 = tested on: MDA-MB-231
BT-549 = tested on: BT-549
MCF7 = tested on: MCF7
MDA-MB-435 = tested on: MDA-MB-435

SMILES | GI50 (OVCAR-4) | GI50 (LOX IMVI) | GI50 (CAKI-1) | GI50 (786-0) | GI50 (UACC-62) | GI50 (SN12C) | GI50 (SF-295) | GI50 (HCT-15) [µM] | GI50 (HT-29) | GI50 (HL-60) | GI50 (DLD-1) | GI50 (NCI-H226) | GI50 (K562) | GI50 (SNB-75) | GI50 (RXF 393) | GI50 (MDA-N) | GI50 (MDA-MB-231) | GI50 (BT-549) | GI50 (MCF7) | GI50 (MDA-MB-435)
COc1ccc2ccccc2c1C1OC(=O)c2ccccc21 (configuration not stated) | 82.8 µM (inactive) | > 100 µM (inactive) | > 100 µM (inactive) | > 100 µM (inactive) | 80 µM (inactive) | > 100 µM (inactive) | 56.2 µM (inactive) | > 100 | > 100 µM (inactive) | 44.3 µM (inactive) | > 100 µM (inactive) | > 100 µM (inactive) | 33 µM (inactive) |  |  |  |  |  |  | 
CC1=NN(C(=O)Cc2ccccc2)C(=O)/C1=C/c1c(O)ccc2ccccc12 | 78.9 µM (inactive) | 27.5 µM (inactive) | 92.5 µM (inactive) | 83.9 µM (inactive) |  | 34.1 µM (inactive) | 34.1 µM (inactive) | 2.21 | 57.3 µM (inactive) | 49.2 µM (inactive) | 10 µM (inactive) | 27 µM (inactive) | 40.6 µM (inactive) | 29.6 µM (inactive) |  |  |  |  |  | 
O=C1Nc2ccc([N+](=O)[O-])cc2/C1=N/Nc1ccc([N+](=O)[O-])cc1 | 19.5 µM (inactive) | 27.5 µM (inactive) | 20.5 µM (inactive) | 4.73 µM (inactive) | 14.6 µM (inactive) |  | 11.8 µM (inactive) | 21.4 | 21.4 µM (inactive) |  | 17.8 µM (inactive) | 2.72 µM (inactive) | 26.9 µM (inactive) | 40.9 µM (inactive) | 13.7 µM (inactive) |  |  |  |  | 
NC(=O)Nc1c(Cl)cc(S(N)(=O)=O)cc1Cl | > 100 µM (inactive) | > 100 µM (inactive) | > 100 µM (inactive) | > 100 µM (inactive) | > 100 µM (inactive) | > 100 µM (inactive) | > 100 µM (inactive) | > 100 | > 100 µM (inactive) | > 100 µM (inactive) |  | > 100 µM (inactive) | > 100 µM (inactive) | > 100 µM (inactive) | > 100 µM (inactive) | > 100 µM (inactive) | > 100 µM (inactive) | > 100 µM (inactive) | > 100 µM (inactive) | > 100 µM (inactive)
OCC(O)C(O)C(O)C(O)c1nc2cc(Cl)ccc2[nH]1 (configuration not stated) | > 100 µM (inactive) | > 100 µM (inactive) | > 100 µM (inactive) | > 100 µM (inactive) | > 100 µM (inactive) | > 100 µM (inactive) | 28.8 µM (inactive) | > 100 | > 100 µM (inactive) | 2.14 µM (inactive) |  | 26.2 µM (inactive) | > 100 µM (inactive) | > 100 µM (inactive) | > 100 µM (inactive) | > 100 µM (inactive) | > 100 µM (inactive) | > 100 µM (inactive) | > 100 µM (inactive) | > 100 µM (inactive)
O=c1oc2cc(/N=C/c3ccc4c(c3)OCO4)ccc2c2ccccc12 | > 100 µM (inactive) | 79.8 µM (inactive) | 65 µM (inactive) | 35 µM (inactive) | 55.8 µM (inactive) | 51.9 µM (inactive) | 58.6 µM (inactive) | > 100 | 50.9 µM (inactive) | > 100 µM (inactive) |  | > 100 µM (inactive) | > 100 µM (inactive) | 15 µM (inactive) | 19.2 µM (inactive) | > 100 µM (inactive) | 77.4 µM (inactive) | > 100 µM (inactive) | 54.5 µM (inactive) | > 100 µM (inactive)
COc1ccc(C2C3=C(COC3=O)Oc3cc4c(cc32)OCO4)c(OC)c1 (configuration not stated) | 8.11 µM (inactive) | 4.31 µM (inactive) | 18.6 µM (inactive) | 21.7 µM (inactive) | 6.79 µM (inactive) | 6.75 µM (inactive) | 5.77 µM (inactive) | 5.73 | 6.65 µM (inactive) | 4.34 µM (inactive) |  | 31.8 µM (inactive) | 4.3 µM (inactive) | 10.9 µM (inactive) | 16.1 µM (inactive) | 2.09 µM (inactive) | 9.04 µM (inactive) | 22.9 µM (inactive) | 6.89 µM (inactive) | 2.28 µM (inactive)
Cc1cccc(NC(=O)/C(=N\NC(C)(C)C)C2NC(=S)NC2=O)c1C (configuration not stated) | > 100 µM (inactive) |  | 15.4 µM (inactive) | > 100 µM (inactive) | > 100 µM (inactive) |  | > 100 µM (inactive) | > 100 |  | > 100 µM (inactive) | > 100 µM (inactive) |  | > 100 µM (inactive) |  |  |  |  |  |  | 
C=C(/C=C/C=C(\CO)CCC=C(C)C)[C@H]1CCC2([C@H](CCCO)/C(=C(/C)C=O)CC[C@]2(C)O)[C@H]1O (some centres not stated) | > 100 µM (inactive) | 54.2 µM (inactive) | > 100 µM (inactive) | > 100 µM (inactive) | > 100 µM (inactive) |  | 21.2 µM (inactive) | > 100 | > 100 µM (inactive) | 56.1 µM (inactive) | > 100 µM (inactive) |  | 51.4 µM (inactive) | 58.6 µM (inactive) |  |  |  |  |  | 
Cc1cc(/N=C/c2ccc(N(C)C)cc2)n(-c2ccccc2)n1 | > 100 µM (inactive) | 48.3 µM (inactive) | 62.7 µM (inactive) | 51.8 µM (inactive) | 86.7 µM (inactive) | 28.4 µM (inactive) | 30.8 µM (inactive) | 15.6 | 12.6 µM (inactive) | 17.9 µM (inactive) |  | 50.5 µM (inactive) | 44.6 µM (inactive) | 40.6 µM (inactive) | 44.4 µM (inactive) | 5.86 µM (inactive) | 91.6 µM (inactive) | 51.3 µM (inactive) | 31 µM (inactive) | 4.4 µM (inactive)
CCCCC(=C=C1CCCCC1O)C1CCCN1C(=O)OC(C)(C)C (configuration not stated) | 13.9 µM (inactive) | 17.7 µM (inactive) | 11.5 µM (inactive) | 16.1 µM (inactive) | 11.2 µM (inactive) | 17.8 µM (inactive) | 14.8 µM (inactive) | 16.4 | 14.3 µM (inactive) | 11.1 µM (inactive) |  | 17.4 µM (inactive) | 17.5 µM (inactive) | 13.8 µM (inactive) | 13 µM (inactive) | 16.4 µM (inactive) | 16.1 µM (inactive) | 19.3 µM (inactive) | 17.2 µM (inactive) | 16.9 µM (inactive)
CC1=CP(=O)(c2c(C(C)C)cc(C(C)C)cc2C(C)C)CCC1Cl (configuration not stated) | 19.3 µM (inactive) | 18.8 µM (inactive) | 16.8 µM (inactive) | 18.1 µM (inactive) | 12 µM (inactive) | 17.7 µM (inactive) | 12.4 µM (inactive) | 16 | 16.4 µM (inactive) | 13.7 µM (inactive) |  | 19.1 µM (inactive) | 10.2 µM (inactive) | 14 µM (inactive) | 14.7 µM (inactive) | 21.7 µM (inactive) | 15.3 µM (inactive) | 17.1 µM (inactive) | 15.4 µM (inactive) | 17.7 µM (inactive)
CC(=O)NC(Cc1c[nH]cn1)C(=O)N1CCCC1C(N)=O (configuration not stated) | > 100 µM (inactive) | > 100 µM (inactive) | > 100 µM (inactive) | > 100 µM (inactive) | > 100 µM (inactive) | > 100 µM (inactive) | > 100 µM (inactive) | > 100 | > 100 µM (inactive) | > 100 µM (inactive) |  | > 100 µM (inactive) | > 100 µM (inactive) | > 100 µM (inactive) | > 100 µM (inactive) | > 100 µM (inactive) | > 100 µM (inactive) | > 100 µM (inactive) | > 100 µM (inactive) | > 100 µM (inactive)
